Molecules are shown by their SMILES. Structures can show the parent of a compound that is named as a salt. Bounds are passed on as bounds.

For 21 molecules, IC50 results are on record in US8637525B2, “Compounds for the reduction of beta-amyloid production” (Bristol-Myers Squibb Company, priority 2009, dated 2014).

The subject of the first test is Aβ1-42 production. Put plainly: Cellular assay for inhibition of Aβ1-42 production (H4 APP751 SWE clone 8.20). It is filed as cell-based. Particulars: 19 h, H4 APP751 SWE clone 8.20 cells, 19 h incubation; class symbols; read-out: Activity Rating (Aβ42 cellular IC50). An outline of the steps:
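H4 cells stably expressing Swedish-mutant APP751 incubated with compound 19 h at 37 °C, 5% CO2. Secreted Aβ42 detected by HTRF with Aβ42 neoepitope antibody 565 (0.8 ng/well) and N-terminal 26D6 (75 ng/well), overnight at 4 °C. IC50 obtained by curve fitting.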
A word on the IC50: it is the point on the concentration scale where inhibition reaches its midpoint. On to `COc1cc(Nc2nc3c(c(N4CC(F)(F)C4)n2)COC3c2ccc(F)cc2)ccc1-n1cnc(Cl)c1` (stereo not drawn) [Example 80A, N-(4-(4-chloro-1H-imidazol-1-yl)-3-methoxyphenyl)-4-(3,3-difluoroazetidin-1-yl)-7-(4-fluorophenyl)-5,7-dihydrofuro[3,4-d]pyrimidin-2-amine], for which the IC50 was in the range of 10 to 100 nM.
As to `CNc1nc(Nc2ccc(-n3cnc(C)n3)c(OC)c2)nc2c1COCC2c1ccc(F)cc1` (racemic) [Example 54, 8-(4-fluorophenyl)-N2-(3-methoxy-4-(3-methyl-1H-1,2,4-triazol-1-yl)phenyl)-N4-methyl-7,8-dihydro-5H-pyrano[4,3-d]pyrimidine-2,4-diamine], the IC50 is 10 to 100 nM.
Same read-out and setting: with `CNc1nc(Nc2ccc3c(c2)CCNC3)nc2c1CCC2c1ccccc1` (stereo not drawn) [Example 245, N4-methyl-7-phenyl-N2-(1,2,3,4-tetrahydroisoquinolin-6-yl)-6,7-dihydro-5H-cyclopenta[d]pyrimidine-2,4-diamine] the figure was over 1000 nM; with `CCNc1nc(Nc2ccc(-n3ncnc3C)c(F)c2)nc2c1CN(C(=O)C1CC1)CC2c1ccccc1` (stereo not drawn) [Example 144, cyclopropyl(4-(ethylamino)-2-(3-fluoro-4-(5-methyl-1H-1,2,4-triazol-1-yl)phenylamino)-8-phenyl-7,8-dihydropyrido[4,3-d]pyrimidin-6(5H)-yl)methanone], 10 to 100 nM; with `COc1cc(Nc2nc3c(c(N4CCC(N(C)C)C4)n2)CCC3c2ccc(F)cc2)ccc1-n1cnc(Cl)c1` (single isomer, unassigned) [Example 29A, N-(4-(4-chloro-1H-imidazol-1-yl)-3-methoxyphenyl)-4-(3-(dimethylamino)pyrrolidin-1-yl)-7-(4-fluorophenyl)-6,7-dihydro-5H-cyclopenta[d]pyrimidin-2-amine], 10 to 100 nM.
Still for that read-out and setting: with `CNc1nc(Nc2ccc(C3(C#N)CCCC3)cc2)nc2c1CCC2c1ccccc1` (stereo not drawn) [Example 244, 1-(4-(4-(methylamino)-7-phenyl-6,7-dihydro-5H-cyclopenta[d]pyrimidin-2-ylamino)phenyl)cyclopentanecarbonitrile] the figure was over 1000 nM; with `CCOCCCNc1nc(Nc2ccc(-n3cnc(Cl)c3)c(OC)c2)nc2c1CCC2c1ccc(F)cc1` (stereo not drawn) [Example 42, N2-(4-(4-chloro-1H-imidazol-1-yl)-3-methoxyphenyl)-N4-(3-ethoxypropyl)-7-(4-fluorophenyl)-6,7-dihydro-5H-cyclopenta[d]pyrimidine-2,4-diamine], 10 to 100 nM; with `CCNc1nc(Nc2ccc(-n3cnc(Cl)c3)c(OC)c2)nc2c1COC2c1ccc(F)cc1` (stereo not drawn) [Example 75, N^2-(4-(4-chloro-1H-imidazol-1-yl)-3-methoxyphenyl)-N^4-ethyl-7-(4-fluorophenyl)-5,7-dihydrofuro[3,4-d]pyrimidine-2,4-diamine], 10 to 100 nM.
With `CCOC1CN(c2nc(Nc3ccc(-n4cnc(Cl)c4)c(OC)c3)nc3c2CCC3c2ccc(F)cc2)C1` (stereo not drawn) [Example 187, N-(4-(4-chloro-1H-imidazol-1-yl)-3-methoxyphenyl)-4-(3-ethoxyazetidin-1-yl)-7-(4-fluorophenyl)-6,7-dihydro-5H-cyclopenta[d]pyrimidin-2-amine], the IC50 was in the range of 10 to 100 nM.
On to `CNc1nc(Nc2ccc(-n3ncnc3C)c(OC)c2)nc2c1CC[C@H]2c1ccc(F)cc1` (single isomer, unassigned) [Example 264A], for which the IC50 was 1.5 to 9.9 nM.
The same measure, in the same setting: with `COc1cc(Nc2nc3c(c(N4CCC(F)C4)n2)CCOC3c2ccc(F)cc2)ccc1-n1cnc(Cl)c1` (stereo in doubt) [Example 90A, N-(4-(4-chloro-1H-imidazol-1-yl)-3-methoxyphenyl)-8-(4-fluorophenyl)-4-((R)-3-fluoropyrrolidin-1-yl)-6,8-dihydro-5H-pyrano[3,4-d]pyrimidin-2-amine] the figure was 10 to 100 nM.

Staying with this test, now noted: 19 h, H4 APP751 SWE clone 8.20 cells, 19 h incubation; read-out: Activity Rating (Aβ42 cellular IC50), numeric value.
`CCNc1nc(Nc2ccc(-n3cnc(C)n3)c(F)c2)nc2c1CN(CC(F)F)CC2c1ccccc1` (stereo not drawn) [Example 195, 6-(2,2-difluoroethyl)-N4-ethyl-N2-(3-fluoro-4-(3-methyl-1H-1,2,4-triazol-1-yl)phenyl)-8-phenyl-5,6,7,8-tetrahydropyrido[4,3-d]pyrimidine-2,4-diamine]: the IC50 turned out to be 17 nM.
As to `CNc1nc(Nc2ccc3nc[nH]c3c2)nc2c1CCC2c1ccccc1` (stereo not drawn) [Example 253, N2-(1H-benzo[d]imidazol-6-yl)-N4-methyl-7-phenyl-6,7-dihydro-5H-cyclopenta[d]pyrimidine-2,4-diamine], the IC50 stood at 5900 nM.
Still for that read-out and setting: the figure for `C#Cc1ccc(Nc2nc(NC)c3c(n2)C(c2ccc(F)cc2)CC3)cc1` (stereo not drawn) [Example 259, N2-(4-ethynylphenyl)-7-(4-fluorophenyl)-N4-methyl-6,7-dihydro-5H-cyclopenta[d]pyrimidine-2,4-diamine] is 940 nM; for `CCNc1nc(Nc2ccc(-n3cnc(Cl)c3)c(OC)c2)nc2c1CN(S(C)(=O)=O)CC2c1ccccc1` (stereo not drawn) [Example 134A, N2-(4-(4-chloro-1H-imidazol-1-yl)-3-methoxyphenyl)-N4-ethyl-6-(methylsulfonyl)-8-phenyl-5,6,7,8-tetrahydropyrido[4,3-d]pyrimidine-2,4-diamine] it is 3.6 nM.

The test is the same for the next values; noted with them: H4 APP751 SWE clone 8.20 cells, 19 h incubation; class symbols; TFA; read-out: Activity Rating (Aβ42 cellular IC50).
As to `COc1cc(Nc2nc(N[C@@H](C)C3CC3)c3c(n2)C(c2ccc(F)cc2)CC3)ccc1-n1cnc(Cl)c1` (mixture of isomers) [Example 50, N2-(4-(4-chloro-1H-imidazol-1-yl)-3-methoxyphenyl)-N4-((S)-1-cyclopropylethyl)-7-(4-fluorophenyl)-6,7-dihydro-5H-cyclopenta[d]pyrimidine-2,4-diamine, TFA], the IC50 lay in the range of 1.5 to 9.9 nM.

The same test, now with this note: H4 APP751 SWE clone 8.20 cells, 19 h incubation; class symbols; read-out: Activity Rating (Aβ42 cellular IC50).
Regarding `CNc1nc(Nc2ccc(-n3cnc(Cl)c3)c(OC)c2)nc2c1CCC2c1ccc(Cl)cc1` (single isomer, unassigned) [Example 94B, N^2-(4-(4-chloro-1H-imidazol-1-yl)-3-methoxyphenyl)-7-(4-chlorophenyl)-N^4-methyl-6,7-dihydro-5H-cyclopenta[d]pyrimidine-2,4-diamine], the IC50 lay within 10 to 100 nM.
In the case of `COc1cc(Nc2nc3c(c(N4CCC(O)(C(F)(F)F)C4)n2)CCC3c2ccc(F)cc2)ccc1-n1cnc(Cl)c1` (single isomer, unassigned) [Example 28A, 1-(2-(4-(4-chloro-1H-imidazol-1-yl)-3-methoxyphenylamino)-7-(4-fluorophenyl)-6,7-dihydro-5H-cyclopenta[d]pyrimidin-4-yl)-3-(trifluoromethyl)pyrrolidin-3-ol], the IC50 was 10 to 100 nM.
As for `CNc1nc(Nc2ccc(-n3cnc(Cl)c3)c(OC)c2)nc2c1CCCC2c1ccccc1` (stereo not drawn) [Example 203B, N2-(4-(4-chloro-1H-imidazol-1-yl)-3-methoxyphenyl)-N4-methyl-8-phenyl-5,6,7,8-tetrahydroquinazoline-2,4-diamine], the IC50 fell in the range of 10 to 100 nM.
For `CNc1nc(Nc2ccc(-n3ncnc3C)c(F)c2)nc2c1COC2c1ccc(F)cc1` (stereo not drawn) [Example 82A, N2-(3-fluoro-4-(5-methyl-1H-1,2,4-triazol-1-yl)phenyl)-7-(4-fluorophenyl)-N4-methyl-5,7-dihydrofuro[3,4-d]pyrimidine-2,4-diamine], the IC50 is 1.5 to 9.9 nM.
Regarding `COc1cc(Nc2nc3c(c(N4CCC(F)(F)C4)n2)CCC3c2cc(F)c(F)c(F)c2)ccc1-n1cnc(Cl)c1` (single isomer, unassigned) [Example 107B, N-(4-(4-chloro-1H-imidazol-1-yl)-3-methoxyphenyl)-4-(3,3-difluoropyrrolidin-1-yl)-7-(3,4,5-trifluorophenyl)-6,7-dihydro-5H-cyclopenta[d]pyrimidin-2-amine], the 50% inhibitory concentration (IC50) was 100 to 1000 nM.
